Assay results published in patent US20230085307A1, “PYRIDAZINONE COMPOUND AND HERBICIDE” (NISSAN CHEMICAL CORPORATION, priority 2019, published 2023).

Experiments:
persian speedwell [1] = assay: Test Example 4: herbicidal effect by soil treatment (Table 19, symbol R); format: in vivo, Persian speedwell (Veronica persica); conditions: AAH 320 g/ha
Method in brief: (§1)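 Emulsion of test compound, water-diluted to predetermined amount, sprayed on soil after sowing (seed depth ~1.5 cm, sterilized diluvial soil). Greenhouse, 25–30° C. Effect graded at three weeks post-spray.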

redroot pigweed [2] = assay: Test Example 4: herbicidal effect by soil treatment (Table 19, symbol N); format: in vivo, redroot pigweed (Amaranthus retroflexus); conditions: AAH 320 g/ha
Method in brief: as §1

southern crabgrass [3] = assay: Test Example 4: herbicidal effect by soil treatment (Table 19, symbol F); format: in vivo, southern crabgrass (Digitaria ciliaris); conditions: AAH 320 g/ha
Method in brief: as §1

barnyard grass [4] = assay: Test Example 3: herbicidal effect by foliage application, Wagner pot (Table 18, symbol H); format: in vivo, barnyard grass (Echinochloa crus-galli); conditions: 320 g/ha
Method in brief: (§2)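 Plants were sown in alluvial soil held under 0.1–0.5 cm standing water and grown 14 days in a greenhouse at 25–30 °C. An emulsifiable formulation, water-diluted to the set dose, was then sprayed onto the foliage, and effects were scored three weeks later using previously defined criteria.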

rice flat sedge = assay: Test Example 3: herbicidal effect by foliage application, Wagner pot (Table 18, symbol E); format: in vivo, rice flat sedge (Cyperus iria); conditions: 320 g/ha
Method in brief: as §2

southern crabgrass [5] = assay: Test Example 5: herbicidal effect by foliage application, plastic box (Table 20, symbol F); format: in vivo, southern crabgrass (Digitaria ciliaris); conditions: foliage application, AAH 320 g/ha, three weeks after application
Method in brief: (§3)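 Post-emergence foliar test in sterilized diluvial soil. Compound applied as water-diluted emulsion at a predetermined rate to 14-day-old plants; evaluation at three weeks.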

blackgrass [6] = assay: Test Example 4: herbicidal effect by soil treatment (Table 19, symbol J); format: in vivo, blackgrass (Alopecurus myosuroides); conditions: AAH 320 g/ha
Method in brief: as §1

redroot pigweed [7] = assay: Test Example 5: herbicidal effect by foliage application, plastic box (Table 20, symbol N); format: in vivo, redroot pigweed (Amaranthus retroflexus); conditions: foliage application, AAH 320 g/ha, three weeks after application
Method in brief: as §3

Chinese sprangletop = assay: Test Example 3: herbicidal effect by foliage application, Wagner pot (Table 18, symbol D); format: in vivo, chinese sprangletop (Leptochloa chinensis); conditions: 320 g/ha
Method in brief: as §2

green foxtail [8] = assay: Test Example 5: herbicidal effect by foliage application, plastic box (Table 20, symbol G); format: in vivo, green foxtail (Setaria viridis); conditions: foliage application, AAH 320 g/ha, three weeks after application
Method in brief: as §3

velvetleaf [9] = assay: Test Example 5: herbicidal effect by foliage application, plastic box (Table 20, symbol M); format: in vivo, velvetleaf (Abutilon theophrasti); conditions: foliage application, AAH 320 g/ha, three weeks after application
Method in brief: as §3

velvetleaf [10] = assay: Test Example 4: herbicidal effect by soil treatment (Table 19, symbol M); format: in vivo, velvetleaf (Abutilon theophrasti); conditions: AAH 320 g/ha
Method in brief: as §1

barnyard grass [11] = assay: Test Example 4: herbicidal effect by soil treatment (Table 19, symbol H); format: in vivo, barnyard grass (Echinochloa crus-galli); conditions: AAH 320 g/ha
Method in brief: as §1

wild oat [12] = assay: Test Example 5: herbicidal effect by foliage application, plastic box (Table 20, symbol I); format: in vivo, wild oat (Avena fatua); conditions: foliage application, AAH 320 g/ha, three weeks after application
Method in brief: as §3

windgrass [13] = assay: Test Example 5: herbicidal effect by foliage application, plastic box (Table 20, symbol L); format: in vivo, windgrass (Apera spica-venti); conditions: foliage application, AAH 320 g/ha, three weeks after application
Method in brief: as §3

Italian ryegrass [14] = assay: Test Example 4: herbicidal effect by soil treatment (Table 19, symbol K); format: in vivo, Italian ryegrass (Lolium multiflorum); conditions: AAH 320 g/ha
Method in brief: as §1

false cleavers = assay: Test Example 5: herbicidal effect by foliage application, plastic box (Table 20, symbol Q); format: in vivo, false cleavers (Galium spurium); conditions: foliage application, AAH 320 g/ha, three weeks after application
Method in brief: as §3

persian speedwell [15] = assay: Test Example 5: herbicidal effect by foliage application, plastic box (Table 20, symbol R); format: in vivo, Persian speedwell (Veronica persica); conditions: foliage application, AAH 320 g/ha, three weeks after application
Method in brief: as §3

chickweed [16] = assay: Test Example 5: herbicidal effect by foliage application, plastic box (Table 20, symbol P); format: in vivo, common chickweed (Stellaria media); conditions: foliage application, AAH 320 g/ha, three weeks after application
Method in brief: as §3

blackgrass [17] = assay: Test Example 5: herbicidal effect by foliage application, plastic box (Table 20, symbol J); format: in vivo, blackgrass (Alopecurus myosuroides); conditions: foliage application, AAH 320 g/ha, three weeks after application
Method in brief: as §3

windgrass [18] = assay: Test Example 4: herbicidal effect by soil treatment (Table 19, symbol L); format: in vivo, windgrass (Apera spica-venti); conditions: AAH 320 g/ha
Method in brief: as §1

lambsquarters [19] = assay: Test Example 5: herbicidal effect by foliage application, plastic box (Table 20, symbol O); format: in vivo, lambsquarters (Chenopodium album); conditions: foliage application, AAH 320 g/ha, three weeks after application
Method in brief: as §3

wild oat [20] = assay: Test Example 4: herbicidal effect by soil treatment (Table 19, symbol I); format: in vivo, wild oat (Avena fatua); conditions: AAH 320 g/ha
Method in brief: as §1

green foxtail [21] = assay: Test Example 4: herbicidal effect by soil treatment (Table 19, symbol G); format: in vivo, green foxtail (Setaria viridis); conditions: AAH 320 g/ha
Method in brief: as §1

Italian ryegrass [22] = assay: Test Example 5: herbicidal effect by foliage application, plastic box (Table 20, symbol K); format: in vivo, Italian ryegrass (Lolium multiflorum); conditions: foliage application, AAH 320 g/ha, three weeks after application
Method in brief: as §3

chickweed [23] = assay: Test Example 4: herbicidal effect by soil treatment (Table 19, symbol P); format: in vivo, common chickweed (Stellaria media); conditions: AAH 320 g/ha
Method in brief: as §1

barnyard grass [24] = assay: Test Example 5: herbicidal effect by foliage application, plastic box (Table 20, symbol H); format: in vivo, barnyard grass (Echinochloa crus-galli); conditions: foliage application, AAH 320 g/ha, three weeks after application
Method in brief: as §3

lambsquarters [25] = assay: Test Example 4: herbicidal effect by soil treatment (Table 19, symbol O); format: in vivo, lambsquarters (Chenopodium album); conditions: AAH 320 g/ha
Method in brief: as §1

SMILES: COc1nn(C)c(=O)c(-c2c(-c3ccc(F)c(F)c3)sc3ccccc23)c1O [1-172]
- R: persian speedwell, herbicidal effect rating (persian speedwell [1]): 5 (Herbicidal rate of 90% or more (almost completely withered))
- N: redroot pigweed, herbicidal effect rating (redroot pigweed [2]): 5 (Herbicidal rate of 90% or more (almost completely withered))
- F: southern crabgrass, herbicidal effect rating (southern crabgrass [3]): 2 (Herbicidal rate of 20% or more and less than 40%)
- herbicidal effect on H (barnyard grass), rating 0-5 (barnyard grass [4]): 0 (Herbicidal rate of 5% or less (almost no effect))
- herbicidal effect on E (rice flat sedge), rating 0-5 (rice flat sedge): 5 (Herbicidal rate of 90% or more (almost completely withered))
- F: southern crabgrass, herbicidal effect (southern crabgrass [5]): 0 (Herbicidal rate of 5% or less (almost no effect))
- J: blackgrass, herbicidal effect rating (blackgrass [6]): 0 (Herbicidal rate of 5% or less (almost no effect))
- N: redroot pigweed, herbicidal effect (redroot pigweed [7]): 5 (Herbicidal rate of 90% or more (almost completely withered))
- herbicidal effect on D (Chinese sprangletop), rating 0-5 (Chinese sprangletop): 0 (Herbicidal rate of 5% or less (almost no effect))
- G: green foxtail, herbicidal effect (green foxtail [8]): 4 (Herbicidal rate of 70% or more and less than 90%)
- M: velvetleaf, herbicidal effect (velvetleaf [9]): 3 (Herbicidal rate of 40% or more and less than 70%)
- M: velvetleaf, herbicidal effect rating (velvetleaf [10]): 1 (Herbicidal rate of 5% or more and less than 20%)
- H: barnyard grass, herbicidal effect rating (barnyard grass [11]): 0 (Herbicidal rate of 5% or less (almost no effect))
- I: wild oat, herbicidal effect (wild oat [12]): 0 (Herbicidal rate of 5% or less (almost no effect))
- L: windgrass, herbicidal effect (windgrass [13]): 0 (Herbicidal rate of 5% or less (almost no effect))
- K: Italian ryegrass, herbicidal effect rating (Italian ryegrass [14]): 1 (Herbicidal rate of 5% or more and less than 20%)
- Q: false cleavers, herbicidal effect (false cleavers): 5 (Herbicidal rate of 90% or more (almost completely withered))
- R: persian speedwell, herbicidal effect (persian speedwell [15]): 5 (Herbicidal rate of 90% or more (almost completely withered))
- P: chickweed, herbicidal effect (chickweed [16]): 5 (Herbicidal rate of 90% or more (almost completely withered))
- J: blackgrass, herbicidal effect (blackgrass [17]): 0 (Herbicidal rate of 5% or less (almost no effect))
- L: windgrass, herbicidal effect rating (windgrass [18]): 0 (Herbicidal rate of 5% or less (almost no effect))
- O: lambsquarters, herbicidal effect (lambsquarters [19]): 5 (Herbicidal rate of 90% or more (almost completely withered))
- I: wild oat, herbicidal effect rating (wild oat [20]): 0 (Herbicidal rate of 5% or less (almost no effect))
- G: green foxtail, herbicidal effect rating (green foxtail [21]): 5 (Herbicidal rate of 90% or more (almost completely withered))
- K: Italian ryegrass, herbicidal effect (Italian ryegrass [22]): 3 (Herbicidal rate of 40% or more and less than 70%)
- P: chickweed, herbicidal effect rating (chickweed [23]): 5 (Herbicidal rate of 90% or more (almost completely withered))
- H: barnyard grass, herbicidal effect (barnyard grass [24]): 0 (Herbicidal rate of 5% or less (almost no effect))
- O: lambsquarters, herbicidal effect rating (lambsquarters [25]): 5 (Herbicidal rate of 90% or more (almost completely withered))
